Laboratory results reported in US4169197A, “6-Deoxyneamines aminoglycoside compounds” (The Upjohn Company, priority 1978, dated 1979).
Converted amounts (≈) assume the structure as drawn.

Tests used:
Format in all cases: cell-based
Ps. aeruginosa UC 95 [1] = assay: standard microplate test in BHI Agar; conditions: Pseudomonas aeruginosa, UC95, 20 h, read-out: Minimum Inhibitory Concentration
Procedure: (§1) The compounds VII, XI, XVβ, XVα and XVI were tested in a standard microplate test in BHI (Brain Heart Infusion) Agar at a concentration of 1 mg./ml. and dilutions thereof at 37° incubation temperature. The end points are read out 20 hours. BHI Agar is supplied by Difco Laboratories, Detroit, Mich.

K. pneumoniae UC 58 = assay: standard microplate test in BHI Agar; conditions: Klebsiella pneumoniae, UC58, 20 h, read-out: Minimum Inhibitory Concentration
Procedure: as §1

P. vulgaris UC 93 [2] = assay: standard microplate test in BHI Agar; conditions: Proteus vulgaris, UC93, 20 h, read-out: Minimum Inhibitory Concentration
Procedure: as §1

S. marcescens UC 131 = assay: standard microplate test in BHI Agar; conditions: Serratia marcescens, UC131, 20 h, read-out: Minimum Inhibitory Concentration
Procedure: as §1

S. schottmuelleri UC 126 [3] = assay: standard microplate test in BHI Agar; conditions: 37°, 20 hours, Table III, read-out: Minimum Inhibitory Concentration
Procedure: as §1

P. mirabilis UC 6671 = assay: standard microplate test in BHI Agar; conditions: Proteus mirabilis, UC6671, 20 h, read-out: Minimum Inhibitory Concentration
Procedure: as §1

S. typhi UC 215 = assay: standard microplate test in BHI Agar; conditions: Salmonella enterica, 20 h, read-out: Minimum Inhibitory Concentration
Procedure: as §1

S. aureus UC 76 = assay: standard microplate test in BHI Agar; conditions: Staphylococcus aureus, UC76, 20 h, read-out: Minimum Inhibitory Concentration
Procedure: as §1

P. rettgeri UC 339 = assay: standard microplate test in BHI Agar; conditions: Providencia rettgeri, UC339, 20 h, read-out: Minimum Inhibitory Concentration
Procedure: as §1

S. faecalis UC 694 = assay: standard microplate test in BHI Agar; conditions: Enterococcus faecalis, UC694, 20 h, read-out: Minimum Inhibitory Concentration
Procedure: as §1

S. pyogenes UC 152 = assay: standard microplate test in BHI Agar; conditions: Streptococcus pyogenes, UC152, 20 h, read-out: Minimum Inhibitory Concentration
Procedure: as §1

E. coli UC 45 = assay: standard microplate test in BHI Agar; conditions: Escherichia coli, UC45, 37°, 20 hours, Table III, read-out: Minimum Inhibitory Concentration
Procedure: as §1

S. pneumoniae I UC 41 = assay: standard microplate test in BHI Agar; conditions: Streptococcus pneumoniae, UC41, 20 h, read-out: Minimum Inhibitory Concentration
Procedure: as §1

P. morganii UC 3186 = assay: standard microplate test in BHI Agar; conditions: Morganella morganii, UC3186, 20 h, read-out: Minimum Inhibitory Concentration
Procedure: as §1

S. flexneri UC 143 = assay: standard microplate test in BHI Agar; conditions: Shigella flexneri, UC143, 37°, 20 hours, Table III, read-out: Minimum Inhibitory Concentration
Procedure: as §1

Ps. aeruginosa UC 95 [4] = assay: standard disc plate assay, zones of inhibition; conditions: Pseudomonas aeruginosa, UC95; 1 mg/ml; 12.5 mm paper discs; Table II; read-out: Zones of Inhibition
Text: (§2) The compounds of formulas (V, VII, IX, XI, XIV, XVI, and XIX) are active as antibacterials and can be used in various environments to erradicate or control susceptible microorganisms. Tables I and II set forth the in vitro antibacterial test results for representative compounds of the present invention. The results were obtained with a standard disc plate assay using 12.5 mm paper discs.

P. vulgaris UC 93 [5] = assay: standard disc plate assay, zones of inhibition; conditions: Proteus vulgaris, UC93; 1 mg/ml; 12.5 mm paper discs; Table II; read-out: Zones of Inhibition
Text: as §2

S. schottmuelleri UC 126 [6] = assay: standard disc plate assay, zones of inhibition; conditions: 1 mg/ml; 12.5 mm paper discs; Table II
Text: as §2

S. gallinarum UC 265 = assay: standard disc plate assay, zones of inhibition; conditions: Salmonella enterica, 12.5 mm paper discs, Table II, read-out: Zones of Inhibition
Text: as §2

B. cereus UC 3145 = assay: standard disc plate assay, zones of inhibition; conditions: Bacillus cereus, UC3145; 1 mg/ml; 12.5 mm paper discs; Table II; read-out: Zones of Inhibition
Text: as §2

K. pneumoniae UC 57 = assay: standard disc plate assay, zones of inhibition; conditions: Klebsiella pneumoniae, UC57, 12.5 mm paper discs, Table II, read-out: Zones of Inhibition
Text: as §2

S. lutea UC 130 = assay: standard disc plate assay, zones of inhibition; conditions: Micrococcus luteus, UC130; 1 mg/ml; 12.5 mm paper discs; Table II; read-out: Zones of Inhibition
Text: as §2

B. subtilis UC 564 = assay: standard disc plate assay, zones of inhibition; conditions: Bacillus subtilis, UC564, 12.5 mm paper discs, Table II, read-out: Zones of Inhibition
Text: as §2

E. coli UC 51 = assay: standard disc plate assay, zones of inhibition; conditions: Escherichia coli, UC51, 12.5 mm paper discs, Table II, read-out: Zones of Inhibition
Text: as §2

S. aureus UC 80 = assay: standard disc plate assay, zones of inhibition; conditions: Staphylococcus aureus, UC80, 12.5 mm paper discs, Table II, read-out: Zones of Inhibition
Text: as §2

`C[C@@]1(O)C[C@H](N)C[C@H](N)[C@H]1O[C@H]1O[C@H](CN)[C@@H](O)[C@H](O)[C@H]1N` [6-deoxy-5-methylneamine (VII), 6-deoxy-5-methyl-neamine] showed an MIC (Ps. aeruginosa UC 95 [1]) greater than 500 µg/mL, an MIC (K. pneumoniae UC 58) of 15.6 µg/mL (≈ 48.7 µM) and an MIC (P. vulgaris UC 93 [2]) of 62.5 µg/mL (≈ 195 µM). It also gave an MIC (S. marcescens UC 131) of 125 µg/mL (≈ 390 µM), an MIC (S. schottmuelleri UC 126 [3]) of 62.5 µg/mL (≈ 195 µM) and an MIC (P. mirabilis UC 6671) of 250 µg/mL (≈ 780 µM). For the same compound, the MIC (S. typhi UC 215) was 62.5 µg/mL (≈ 195 µM), the MIC (S. aureus UC 76) was 15.6 µg/mL (≈ 48.7 µM) and the MIC (P. rettgeri UC 339) was greater than 500 µg/mL. For the same compound, the MIC (S. faecalis UC 694) was greater than 500 µg/mL, the MIC (S. pyogenes UC 152) was 7.8 µg/mL (≈ 24.3 µM) and the MIC (E. coli UC 45) was 125 µg/mL (≈ 390 µM). It also gave an MIC (S. pneumoniae I UC 41) of 62.5 µg/mL (≈ 195 µM), an MIC (P. morganii UC 3186) of 125 µg/mL (≈ 390 µM) and an MIC (S. flexneri UC 143) of 125 µg/mL (≈ 390 µM). It also gave a zone of inhibition at 1000 µg/mL (Ps. aeruginosa UC 95 [4]) of 15 mm, a zone of inhibition at 1000 µg/mL (P. vulgaris UC 93 [5]) of 24 mm and a zone of inhibition at 1000 µg/mL (S. schottmuelleri UC 126 [6]) of 21 mm. It also gave a zone of inhibition at 100 µg/mL (S. gallinarum UC 265; 0.1 mg/ml) of 18 mm, a zone of inhibition at 1000 µg/mL (S. gallinarum UC 265; 1 mg/ml) of 28 mm and a zone of inhibition at 1000 µg/mL (B. cereus UC 3145) of 23 mm. The zone of inhibition at 100 µg/mL (K. pneumoniae UC 57; 0.1 mg/ml) was 22 mm, the zone of inhibition at 1000 µg/mL (K. pneumoniae UC 57; 1 mg/ml) was 29 mm and the zone of inhibition at 1000 µg/mL (S. lutea UC 130) was 15 mm. It also gave a zone of inhibition at 100 µg/mL (B. subtilis UC 564; 0.1 mg/ml) of 26 mm, a zone of inhibition at 1000 µg/mL (B. subtilis UC 564; 1 mg/ml) of 37 mm and a zone of inhibition at 100 µg/mL (E. coli UC 51; 0.1 mg/ml) of 16 mm. For the same compound, the zone of inhibition at 1000 µg/mL (E. coli UC 51; 1 mg/ml) was 24 mm, the zone of inhibition at 100 µg/mL (S. aureus UC 80; 0.1 mg/ml) was 18 mm and the zone of inhibition at 1000 µg/mL (S. aureus UC 80; 1 mg/ml) was 25 mm.
